Values after ≈ are worked out from the molar mass of the structure shown.

The conditions of the data set: buffer; pH 7.4; 200.0 µM.
Compound `COc1ccccc1CNC(=S)NC1CCCCC1` came in with a kinetic solubility of more than 41.8 µg/mL.

As for `COc1ccc(NC(=O)COC(=O)CC2CCCC2)cc1`, the solubility (kinetic) is more than 43.7 µg/mL.

The compound `CCCNC(=O)N1CCCC(C(N)=O)C1` (configuration not stated) displayed a solubility (kinetic) of more than 32 µg/mL.

Turning to `OCCCNc1ncnc2scc(-c3ccc(Cl)cc3)c12`, the solubility (kinetic) was more than 48 µg/mL.

`Cc1cccc(C)c1N1CCN(c2c(C)cccc2C)CC1`: the solubility (kinetic) is less than 0.3 µg/mL.

The compound `Cc1ccc(CC2CC(=O)N(CCc3ccccc3)C2=O)cc1` (configuration not stated) yielded a solubility (kinetic) of 2.9 µg/mL (≈ 9.43 µM).

As to `CCOC(=O)C1=C(c2ccccc2)NC(=S)NC1c1ccc(Cl)cc1` (configuration not stated), the kinetic solubility amounted to 5.3 µg/mL (≈ 14.2 µM).

In turn, `CCN1CCN(CC(=O)Nc2cc(S(=O)(=O)N3CCCCC3)ccc2Cl)CC1.O=C(O)C(=O)O` gave a kinetic solubility of more than 77.9 µg/mL.

`CC(C)CCSc1nnc(N)s1` returned a solubility (kinetic) of more than 30.5 µg/mL.

In turn, `CN(c1ccccc1)c1ccc([N+](=O)[O-])c2nonc12` gave a solubility (kinetic) of 2.1 µg/mL (≈ 7.77 µM).

`CC12CCC(=O)N1C(C(=O)N1CCN(c3ccc([N+](=O)[O-])cc3)CC1)CS2` (configuration not stated): the kinetic solubility stood at 30.7 µg/mL (≈ 78.6 µM).

In turn, `Cl.OCCNCCNCc1ccc(-c2ccccc2)cc1` registered a kinetic solubility of more than 51.5 µg/mL.

In the case of `COC(=O)Nc1ccc(S(=O)(=O)N2CCC(C(=O)NCc3ccc4c(c3)OCO4)CC2)cc1`, the solubility (kinetic) was determined as 4 µg/mL (≈ 8.41 µM).

As for `O=C(NCCS(=O)(=O)N1CCCC1)c1ccccc1`, the kinetic solubility was more than 42.4 µg/mL.

Regarding `O=C(Nc1ccccc1)Nc1ccc(Oc2cccnc2)nc1`, the kinetic solubility worked out at 20.5 µg/mL (≈ 66.9 µM).

`CC(=O)Nc1ccc(Oc2ccc(NC(C)=O)c(NC(C)=O)c2)cc1` registered a kinetic solubility of more than 51.2 µg/mL.

`Cc1ccc(S(=O)(=O)N2CCN(C(=O)CC(C)C)CC2)cc1` returned a solubility (kinetic) of more than 48.7 µg/mL.

With `COc1cc2c(cc1OC)CN(Cc1ccccc1)CC2`, the solubility (kinetic) was 35.6 µg/mL (≈ 126 µM).

Compound `CC1=NOC(=O)/C1=C\c1ccc(-c2ccc(Cl)c(C(=O)O)c2)o1` had a kinetic solubility of more than 49.8 µg/mL.

Take `O=C1CN(c2ccccc2)C(=O)N1`: the solubility (kinetic) was more than 26.4 µg/mL.

As for `Cc1ccccc1NC(=O)Cn1c(=O)sc2ccccc21`, the kinetic solubility came to 1.9 µg/mL (≈ 6.37 µM).

`CCOC(=O)C1=C(C)OC(N)=C(C#N)C1c1ccc(C)s1` (configuration not stated) came in with a kinetic solubility of 13.2 µg/mL (≈ 43.4 µM).

Compound `NC(=O)C1CCN(CCC(=O)Nc2ccc(F)c(F)c2)CC1` registered a kinetic solubility of more than 46.7 µg/mL.

For `Cc1cccc(C)c1OC(=O)CN1C(=O)c2ccccc2C1=O`, the kinetic solubility came out at 0.9 µg/mL (≈ 2.91 µM).

Consider `CC(NC(=O)c1ccc(N(C)C)cc1)c1ccc(F)cc1` (configuration not stated), for which the solubility (kinetic) came out at 6.5 µg/mL (≈ 22.7 µM).

For `O=S(=O)(c1ccc(F)cc1)N1CCCC1`, the kinetic solubility was more than 34.4 µg/mL.

Compound `CCOC(=O)C1=C(C)N(C)C(C)=C(C(=O)OCC)C1c1ccsc1` came in with a kinetic solubility of 2 µg/mL (≈ 5.72 µM).

Compound `CC(OC(=O)c1ccc(S(=O)(=O)NCc2ccco2)cc1)C(=O)Nc1ccccc1` (configuration not stated) registered a kinetic solubility of 7.4 µg/mL (≈ 17.3 µM).

Compound `CC(=O)OCC(=O)Nc1ccc(SC(F)F)cc1` displayed a kinetic solubility of more than 41.3 µg/mL.

As to `O=C(NC1CCSc2ccccc21)c1cccc(Cl)c1` (configuration not stated), the solubility (kinetic) was determined as 2.1 µg/mL (≈ 6.91 µM).

`COC(=O)CCc1nc2cc(Cl)ccc2n(Cc2ccccc2)c1=O` showed a kinetic solubility of 1.4 µg/mL (≈ 3.92 µM).

Turning to `CC(C)(C)C(=O)NCCCNc1ccc([N+](=O)[O-])cc1`, the kinetic solubility is 38.3 µg/mL (≈ 137 µM).

Regarding `COc1ccc(NC(=O)c2csc(C)c2)cc1OC`, the kinetic solubility was more than 41.6 µg/mL.

Turning to `COc1cccc(Oc2cc(Cl)nc(N)n2)c1`, the solubility (kinetic) was 15 µg/mL (≈ 59.6 µM).

Regarding `O=[N+]([O-])c1cccc(CN2CCCCCC2)c1`, the kinetic solubility came out at 31.7 µg/mL (≈ 135 µM).

In turn, `COc1ccc(-c2nc3ncccc3n2O)cc1` registered a solubility (kinetic) of more than 36.2 µg/mL.

Consider `COc1cccc(OC)c1OCC(=O)Nc1ccc(S(=O)(=O)N2CCCC2)cc1`, for which the solubility (kinetic) was determined as 2.6 µg/mL (≈ 6.18 µM).

Turning to `COc1ccc(NS(=O)(=O)c2cccc(C(=O)OCC(=O)c3c(N)n(C)c(=O)n(C)c3=O)c2)cc1`, the solubility (kinetic) came to 16.4 µg/mL (≈ 32.6 µM).

In the case of `CN(C)CCCn1c(N)c(C#N)c2nc3ccccc3nc21`, the kinetic solubility was more than 44.2 µg/mL.

`O=C(Cc1ccccc1[N+](=O)[O-])NC1CC2CCC1C2` (configuration not stated) displayed a kinetic solubility of more than 41.1 µg/mL.

Compound `O=C(CSc1nncs1)NC1CCCCCCC1` came in with a solubility (kinetic) of more than 42.8 µg/mL.

`CC(=O)Nc1ccc(NC(=S)NC(=O)/C=C/c2ccco2)cc1` yielded a solubility (kinetic) of 32.3 µg/mL (≈ 98.1 µM).

On to `CN(C)c1ccc(CNS(=O)(=O)c2csc(C(N)=O)c2)cc1`, for which the solubility (kinetic) is more than 50.9 µg/mL.

The compound `CC(/C=C1\SC(=Nc2cccnc2)NC1=O)=C\c1ccccc1` returned a solubility (kinetic) of 1.7 µg/mL (≈ 5.29 µM).

`COc1ccnc2c1c(=O)n(Cc1ccc(Cl)cc1)c(=O)n2C` gave a solubility (kinetic) of 9.3 µg/mL (≈ 28 µM).

Compound `O=C(COc1ncnc2ccccc12)NC1CCCCC1` returned a solubility (kinetic) of more than 42.8 µg/mL.

Regarding `CC(C)CCN1CCN(Cc2ccc(C(F)(F)F)cc2)CC1CCO` (configuration not stated), the kinetic solubility is more than 53.8 µg/mL.

The compound `O=C(Nc1ccccc1C(=O)Nc1ccc(F)cc1)c1ccco1` registered a solubility (kinetic) of 0.9 µg/mL (≈ 2.78 µM).

The compound `O=c1cnc2ccccc2n1Cc1ccccc1C(F)(F)F` showed a kinetic solubility of 43.1 µg/mL (≈ 142 µM).

In the case of `COc1ccc(NC(=O)Nc2cccnc2)cc1`, the solubility (kinetic) was more than 36.5 µg/mL.

`CC(=O)Oc1ccc(C(c2ccc(OC(C)=O)cc2)c2ccccn2)cc1` showed a solubility (kinetic) of more than 54.2 µg/mL.

In turn, `CN(Cc1ccccc1)C(=O)COC(=O)c1ccc(Br)o1` gave a kinetic solubility of more than 52.8 µg/mL.

The solubility (kinetic) is solubility judged after dilution from a stock solution rather than from solid.

(Values after PubChem BioAssay AID1996.)
